Measurements as given in ChEMBL document CHEMBL5463722, “Data for DCP probe BI-5524” (2023).
One block for each compound: values may come before it. Activity calls are given as the source filed them. No cut-off for these calls is given here.

Experiments:
[1] = molecular target: GABA-A receptor; anion channel (Rattus norvegicus) (UniProt O09028+P15431+P18506+P18508+P19969+P20236+P23574+P23576+P28471+P28473+P30191+P62813+P63079+P63138+Q91ZM7+Q9ES14); assay: Inhibitor of GABA/NS/R in the Eurofins SafetyScreen44 (BI) by Radioactive Assay (Cerep_60); format: protein-complex assay; conditions: Compound concentration 10.0 uM
[2] = molecular target: Prostacyclin receptor (Homo sapiens) (UniProt P43119); assay: Activity against PGI2/H in the Eurofins SafetyScreen44 (BI) by Radioactive Assay (Old_Cerep_34); conditions: Compound concentration 10.0 uM
Prostacyclin receptor (Homo sapiens), sequence (P43119 whole entry): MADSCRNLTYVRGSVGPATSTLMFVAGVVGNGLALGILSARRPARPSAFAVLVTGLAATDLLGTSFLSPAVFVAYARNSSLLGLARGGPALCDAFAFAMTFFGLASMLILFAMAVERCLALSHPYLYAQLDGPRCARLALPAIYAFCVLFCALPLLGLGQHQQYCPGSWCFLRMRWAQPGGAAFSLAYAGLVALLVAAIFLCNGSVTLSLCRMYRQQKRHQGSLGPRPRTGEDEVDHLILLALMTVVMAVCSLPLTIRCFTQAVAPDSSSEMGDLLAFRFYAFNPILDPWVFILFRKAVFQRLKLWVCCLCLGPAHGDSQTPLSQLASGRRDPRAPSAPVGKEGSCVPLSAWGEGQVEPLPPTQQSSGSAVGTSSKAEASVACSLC

[3] = molecular target: Endothelin receptor type B (Homo sapiens) (UniProt P24530); assay: Activity against ETB/H in the Eurofins SafetyScreen44 (BI) by Radioactive Assay (Old_Cerep_20); conditions: Compound concentration 10.0 uM
[4] = molecular target: Adrenergic receptor alpha-1 (Rattus norvegicus) (UniProt P15823+P23944+P43140); assay: Inhibitor of ALPHA1/NS/R in the Eurofins SafetyScreen44 (BI) by Radioactive Assay (Old_Cerep_5); format: protein assay
[5] = molecular target: D(4) dopamine receptor (Homo sapiens) (UniProt P21917); assay: D4.4 Eurofins-Cerep binding assay; conditions: Compound concentration 10.0 uM
D(4) dopamine receptor (Homo sapiens), sequence (P21917 whole entry): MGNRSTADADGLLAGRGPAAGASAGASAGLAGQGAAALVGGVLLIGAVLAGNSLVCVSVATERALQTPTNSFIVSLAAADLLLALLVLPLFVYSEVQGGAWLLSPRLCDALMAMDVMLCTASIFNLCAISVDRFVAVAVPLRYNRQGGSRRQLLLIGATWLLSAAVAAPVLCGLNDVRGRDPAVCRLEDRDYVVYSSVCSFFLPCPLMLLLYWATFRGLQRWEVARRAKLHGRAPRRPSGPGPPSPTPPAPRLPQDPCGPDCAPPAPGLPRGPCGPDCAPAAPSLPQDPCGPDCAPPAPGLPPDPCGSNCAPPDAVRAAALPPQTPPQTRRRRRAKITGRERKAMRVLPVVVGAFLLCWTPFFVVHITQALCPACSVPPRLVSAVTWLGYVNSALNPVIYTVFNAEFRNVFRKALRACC

[6] = molecular target: Calcitonin-gene-related peptide receptor, CALCRL/RAMP1 (Homo sapiens) (UniProt O60894+Q16602); assay: Agonist activity in the Eurofins SafetyScreen44 (BI) against CGRP/H by Scintillation counting (Old_Cerep_15); format: protein-complex assay
[7] = molecular target: Elastase, neutrophil expressed (Cricetulus griseus, UniProt A0A3L7HHY4); assay: ELANE inhibitor assay (hamster)
[8] = molecular target: Gastrin/cholecystokinin type B receptor (Homo sapiens) (UniProt P32239); assay: Activity against CCKB/H in the Eurofins SafetyScreen44 (BI) by Radioactive Assay (Old_Cerep_13); conditions: Compound concentration 10.0 uM
[9] = molecular target: Kappa-type opioid receptor (Rattus norvegicus) (UniProt P34975); assay: Inhibitor of KAPPA/R in the Eurofins SafetyScreen44 (BI) by Radioactive Assay (Old_Cerep_24); conditions: Compound concentration 10.0 uM
Kappa-type opioid receptor (Rattus norvegicus), sequence (P34975 whole entry): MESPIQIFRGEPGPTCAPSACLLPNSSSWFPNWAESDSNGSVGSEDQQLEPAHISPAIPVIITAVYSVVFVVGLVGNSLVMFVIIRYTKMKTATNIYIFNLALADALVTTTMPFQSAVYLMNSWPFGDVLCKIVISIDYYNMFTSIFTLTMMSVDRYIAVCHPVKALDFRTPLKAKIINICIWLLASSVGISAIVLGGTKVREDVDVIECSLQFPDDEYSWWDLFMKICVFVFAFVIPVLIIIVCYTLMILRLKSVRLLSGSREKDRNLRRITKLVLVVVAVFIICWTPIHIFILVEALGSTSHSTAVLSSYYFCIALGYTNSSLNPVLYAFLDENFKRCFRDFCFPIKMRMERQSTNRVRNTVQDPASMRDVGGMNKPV

[10] = molecular target: Cannabinoid receptor 1 (Homo sapiens) (UniProt P21554); assay: Activity against CB1/CENTR/H in the Eurofins SafetyScreen44 (BI) by Radioactive Assay (Old_Cerep_12)
Cannabinoid receptor 1 (Homo sapiens), sequence (P21554 whole entry): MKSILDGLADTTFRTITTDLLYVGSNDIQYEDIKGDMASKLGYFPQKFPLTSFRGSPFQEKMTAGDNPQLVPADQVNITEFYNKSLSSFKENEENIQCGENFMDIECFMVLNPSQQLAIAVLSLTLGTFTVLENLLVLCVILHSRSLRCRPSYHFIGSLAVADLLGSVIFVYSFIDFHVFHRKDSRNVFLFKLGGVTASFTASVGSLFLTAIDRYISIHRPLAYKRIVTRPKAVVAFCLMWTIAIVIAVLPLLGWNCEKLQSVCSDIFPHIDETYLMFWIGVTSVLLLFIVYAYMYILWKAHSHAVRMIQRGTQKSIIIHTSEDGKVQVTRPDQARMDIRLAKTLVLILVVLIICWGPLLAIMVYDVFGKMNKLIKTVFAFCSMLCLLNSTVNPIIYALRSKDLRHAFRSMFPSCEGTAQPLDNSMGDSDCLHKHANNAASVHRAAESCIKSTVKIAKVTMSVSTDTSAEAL

[11] = molecular target: Adrenergic receptor alpha-2 (Rattus norvegicus) (UniProt P22086+P19328+P22909); assay: Inhibitor of ALPHA2/NS/R in the Eurofins SafetyScreen44 (BI) by Radioactive Assay (Old_Cerep_6); format: protein assay
[12] = molecular target: Tumor necrosis factor receptor superfamily member 1A (Homo sapiens) (UniProt P19438); assay: TNF-alpha Eurofins-Cerep binding assay; conditions: Compound concentration 10.0 uM
Tumor necrosis factor receptor superfamily member 1A (Homo sapiens), sequence (P19438 whole entry): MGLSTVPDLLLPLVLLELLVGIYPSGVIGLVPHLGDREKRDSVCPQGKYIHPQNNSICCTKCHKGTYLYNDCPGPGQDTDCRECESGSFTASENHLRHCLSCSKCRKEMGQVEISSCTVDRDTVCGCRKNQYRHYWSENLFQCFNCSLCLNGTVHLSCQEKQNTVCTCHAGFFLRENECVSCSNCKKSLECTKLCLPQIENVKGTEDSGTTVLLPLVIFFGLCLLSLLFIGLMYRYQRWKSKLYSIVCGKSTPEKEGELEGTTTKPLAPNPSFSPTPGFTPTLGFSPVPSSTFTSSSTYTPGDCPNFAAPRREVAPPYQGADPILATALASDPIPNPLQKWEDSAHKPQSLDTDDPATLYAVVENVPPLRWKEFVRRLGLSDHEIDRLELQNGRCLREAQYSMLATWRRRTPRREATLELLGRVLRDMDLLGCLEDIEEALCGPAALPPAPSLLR

Myeloblastin = Myeloblastin (Homo sapiens, UniProt P24158); assay: PRTN3 inhibition assay
[13] = molecular target: Somatostatin receptor type 5 (Mus musculus) (UniProt O08858); assay: Activity against SOMATOS/M in the Eurofins SafetyScreen44 (BI) by Radioactive Assay (Old_Cerep_36); conditions: Compound concentration 10.0 uM
[14] = molecular target: P2Y purinoceptor 1 (Rattus norvegicus) (UniProt P49651); assay: Activity against P2Y/RA in the Eurofins SafetyScreen44 (BI) by Radioactive Assay (Old_Cerep_30); conditions: Compound concentration 10.0 uM
Rattus norvegicus [15] = species on record: Rattus norvegicus; assay: BZD (central) Eurofins-Cerep binding assay; conditions: Compound concentration 10.0 uM
Neutrophil elastase = Neutrophil elastase (Mus musculus, UniProt Q3UP87); assay: ELANE inhibitor assay (mouse)
[16] = molecular target: 5-hydroxytryptamine receptor 7 (Homo sapiens) (UniProt P34969); assay: 5-HT7 Eurofins-Cerep binding assay; parameters: ligand concentration 4 nM; conditions: Compound concentration 10.0 uM
5-hydroxytryptamine receptor 7 (Homo sapiens), sequence (P34969 whole entry): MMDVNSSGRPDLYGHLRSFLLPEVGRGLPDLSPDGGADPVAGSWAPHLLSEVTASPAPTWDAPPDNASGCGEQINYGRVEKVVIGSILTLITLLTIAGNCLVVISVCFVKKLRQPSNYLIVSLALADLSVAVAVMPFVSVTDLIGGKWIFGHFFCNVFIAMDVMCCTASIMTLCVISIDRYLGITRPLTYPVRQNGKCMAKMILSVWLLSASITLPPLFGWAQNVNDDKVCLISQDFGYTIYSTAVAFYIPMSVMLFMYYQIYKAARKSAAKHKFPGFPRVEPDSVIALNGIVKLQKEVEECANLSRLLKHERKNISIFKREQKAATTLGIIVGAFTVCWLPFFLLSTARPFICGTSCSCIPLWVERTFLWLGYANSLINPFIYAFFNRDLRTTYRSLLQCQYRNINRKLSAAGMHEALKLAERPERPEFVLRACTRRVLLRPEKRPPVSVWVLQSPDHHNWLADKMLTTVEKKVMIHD

[17] = molecular target: Platelet-derived growth factor receptor (Mus musculus) (UniProt P05622+P26618); assay: Activity against PDGF/M in the Eurofins SafetyScreen44 (BI) (Old_Cerep_33); format: protein-complex assay; conditions: Compound concentration 10.0 uM
[18] = molecular target: D(3) dopamine receptor (Homo sapiens) (UniProt P35462); assay: D3 Eurofins-Cerep binding assay; conditions: Compound concentration 10.0 uM
[19] = molecular target: Muscarinic acetylcholine receptor M4 (Homo sapiens) (UniProt P08173); assay: M4 Eurofins-Cerep binding assay; conditions: Compound concentration 10.0 uM
[20] = molecular target: 5-hydroxytryptamine receptor 1B (Rattus norvegicus) (UniProt P28564); assay: Inhibitor of 5HT1B/R in the Eurofins SafetyScreen44 (BI) by Radioactive Assay (Old_Cerep_1); conditions: Compound concentration 10.0 uM
5-hydroxytryptamine receptor 1B (Rattus norvegicus), sequence (P28564 whole entry): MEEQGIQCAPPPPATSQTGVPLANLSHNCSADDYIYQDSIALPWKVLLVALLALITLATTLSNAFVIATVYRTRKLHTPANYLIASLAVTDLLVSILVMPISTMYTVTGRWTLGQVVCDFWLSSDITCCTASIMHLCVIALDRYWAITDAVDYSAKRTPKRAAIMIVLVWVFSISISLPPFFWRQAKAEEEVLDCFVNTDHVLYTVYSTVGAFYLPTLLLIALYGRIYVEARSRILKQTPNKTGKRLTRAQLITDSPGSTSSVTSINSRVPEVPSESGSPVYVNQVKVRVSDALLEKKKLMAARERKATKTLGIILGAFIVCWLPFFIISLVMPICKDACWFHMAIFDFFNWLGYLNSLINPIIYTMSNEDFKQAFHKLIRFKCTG

[21] = molecular target: Type-1 angiotensin II receptor (Homo sapiens) (UniProt P30556); assay: AT1 Eurofins-Cerep binding assay
Type-1 angiotensin II receptor (Homo sapiens), sequence (P30556 whole entry): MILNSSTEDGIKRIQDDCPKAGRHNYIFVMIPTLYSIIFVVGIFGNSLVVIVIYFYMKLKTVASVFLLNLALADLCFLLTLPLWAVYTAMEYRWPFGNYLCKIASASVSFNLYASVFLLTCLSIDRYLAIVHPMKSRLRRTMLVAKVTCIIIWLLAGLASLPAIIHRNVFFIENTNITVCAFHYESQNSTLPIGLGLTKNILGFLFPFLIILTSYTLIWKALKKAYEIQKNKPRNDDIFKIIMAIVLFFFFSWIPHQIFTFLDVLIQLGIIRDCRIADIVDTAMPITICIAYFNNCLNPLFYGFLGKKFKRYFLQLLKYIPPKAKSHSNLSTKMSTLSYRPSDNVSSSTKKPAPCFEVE

Rattus norvegicus [22] = species on record: Rattus norvegicus; assay: Cl-channel (GABA-gated) Eurofins-Cerep binding assay; parameters: ligand concentration 3 nM; conditions: Compound concentration 10.0 uM
[23] = molecular target: Galanin receptor type 2 (Homo sapiens) (UniProt O43603); assay: Inhibitor of GAL2/H in the Eurofins SafetyScreen44 (BI) by Radioactive Assay (Old_Cerep_22); conditions: Compound concentration 10.0 uM
[24] = molecular target: Peroxisome proliferator-activated receptor gamma (Homo sapiens) (UniProt P37231); assay: Agonist activity in the Eurofins SafetyScreen44 (BI) against PPARG/H AG by Radioactive Assay (Old_Cerep_35); conditions: Compound concentration 10.0 uM
Peroxisome proliferator-activated receptor gamma (Homo sapiens), sequence (P37231 whole entry): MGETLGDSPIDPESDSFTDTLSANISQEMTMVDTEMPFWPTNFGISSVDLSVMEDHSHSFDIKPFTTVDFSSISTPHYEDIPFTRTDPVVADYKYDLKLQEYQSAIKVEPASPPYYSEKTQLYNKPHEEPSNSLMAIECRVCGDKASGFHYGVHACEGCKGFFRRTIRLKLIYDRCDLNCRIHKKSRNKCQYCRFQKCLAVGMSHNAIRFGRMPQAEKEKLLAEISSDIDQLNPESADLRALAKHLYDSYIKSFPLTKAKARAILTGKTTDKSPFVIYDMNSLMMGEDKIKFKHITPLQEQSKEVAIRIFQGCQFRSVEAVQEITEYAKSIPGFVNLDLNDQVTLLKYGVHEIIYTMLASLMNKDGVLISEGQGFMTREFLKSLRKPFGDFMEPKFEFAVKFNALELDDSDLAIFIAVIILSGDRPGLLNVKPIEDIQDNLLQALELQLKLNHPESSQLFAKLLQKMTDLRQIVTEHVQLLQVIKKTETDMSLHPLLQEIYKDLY

[25] = molecular target: Galanin receptor type 1 (Homo sapiens) (UniProt P47211); assay: Activity against GAL1/H in the Eurofins SafetyScreen44 (BI) by Radioactive Assay (Old_Cerep_21); conditions: Compound concentration 10.0 uM
[26] = molecular target: Sodium-dependent serotonin transporter (Homo sapiens) (UniProt P31645); assay: Activity against 5HTTRANS/H in the Eurofins SafetyScreen44 (BI) by Radioactive Assay (Old_Cerep_4); conditions: Compound concentration 10.0 uM
[27] = molecular target: Cannabinoid receptor 2 (Homo sapiens) (UniProt P34972); assay: Activity against CB2/PERIPH/H in the Eurofins Cerep SafetyScreen44 (BI) by Radioactive Assay (Cerep_37); conditions: Compound concentration 10.0 uM
[28] = molecular target: Alpha-2A adrenergic receptor (Homo sapiens) (UniProt P08913); assay: Inhibitor of ALPHA2A/HU in the Eurofins Cerep SafetyScreen44 (BI) by Radioactive Assay (Cerep_13); conditions: Compound concentration 10.0 uM
Alpha-2A adrenergic receptor (Homo sapiens), sequence (P08913 whole entry): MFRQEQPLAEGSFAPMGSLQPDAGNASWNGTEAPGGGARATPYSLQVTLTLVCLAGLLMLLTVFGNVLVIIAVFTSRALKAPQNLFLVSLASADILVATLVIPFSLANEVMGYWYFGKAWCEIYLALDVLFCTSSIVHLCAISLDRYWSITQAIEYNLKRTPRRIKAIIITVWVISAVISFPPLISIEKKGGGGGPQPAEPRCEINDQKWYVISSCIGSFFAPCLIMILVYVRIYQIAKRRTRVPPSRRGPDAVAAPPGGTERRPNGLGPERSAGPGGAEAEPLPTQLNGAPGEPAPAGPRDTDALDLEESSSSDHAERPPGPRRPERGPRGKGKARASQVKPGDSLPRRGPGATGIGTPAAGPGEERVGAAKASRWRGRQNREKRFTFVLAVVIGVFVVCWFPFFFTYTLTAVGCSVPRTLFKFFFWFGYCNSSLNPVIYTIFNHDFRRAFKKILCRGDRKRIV

[29] = molecular target: Tyrosine-protein kinase Lck (Homo sapiens) (UniProt P06239); assay: Inhibitor of LCK_CE in the Eurofins Cerep SafetyScreen44 (BI) by lanthanide chelation excitation (Cerep_2906); conditions: Compound concentration 10.0 uM
Tyrosine-protein kinase Lck (Homo sapiens), sequence (P06239 2-509 limits assumed): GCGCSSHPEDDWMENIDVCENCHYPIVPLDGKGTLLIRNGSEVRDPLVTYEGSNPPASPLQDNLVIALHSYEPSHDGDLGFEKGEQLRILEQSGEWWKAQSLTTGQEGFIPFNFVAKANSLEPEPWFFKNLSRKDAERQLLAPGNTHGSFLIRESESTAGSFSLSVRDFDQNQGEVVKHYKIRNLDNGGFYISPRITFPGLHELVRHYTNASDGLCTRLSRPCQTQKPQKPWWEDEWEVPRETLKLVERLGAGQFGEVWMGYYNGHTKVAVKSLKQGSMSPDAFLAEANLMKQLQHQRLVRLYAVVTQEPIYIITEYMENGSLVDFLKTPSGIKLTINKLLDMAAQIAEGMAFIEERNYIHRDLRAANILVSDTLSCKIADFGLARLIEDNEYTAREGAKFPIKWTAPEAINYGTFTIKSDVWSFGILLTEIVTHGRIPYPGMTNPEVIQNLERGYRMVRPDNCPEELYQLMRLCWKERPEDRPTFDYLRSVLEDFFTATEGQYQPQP

[30] = molecular target: Cannabinoid receptor 1 (Homo sapiens) (UniProt P21554); assay: CB1 Eurofins-Cerep binding assay; conditions: Compound concentration 10.0 uM
hERG (KCNH2) = hERG (KCNH2) (Homo sapiens, UniProt Q12809); assay: Inhibitor of HERG_DOFETILIDE in the Eurofins Cerep SafetyScreen44 (BI) by Scintillation counting (Cerep_4094); parameters: scale not given: the % may be the effect or the level left; conditions: probe [3H]dofetilide, compound concentration 10 uM, read-out: % Ctrl
[31] = molecular target: Androgen receptor (Homo sapiens) (UniProt P10275); conditions: Compound concentration 10.0 uM
Description: Activity against ANDROGEN/H in the Eurofins Cerep SafetyScreen44 (BI) by Radioactive Assay (Cerep_933)

[32] = molecular target: Kappa-type opioid receptor (Homo sapiens) (UniProt P41145); assay: kappa (KOP) Eurofins-Cerep binding assay; conditions: Compound concentration 10.0 uM

residual activity [5]: 98% | IC50 [7]: 4 nM (active) | IC50 (Myeloblastin): 367 nM (not active) | residual activity (Rattus norvegicus [15]): 111% | IC50 (Neutrophil elastase): 12 nM (active) | residual activity [16]: 102% | residual activity [18]: 96% | residual activity [19]: 95% | residual activity ([21]; Compound concentration 10.0 uM): 116% | residual activity ([21]; Compound concentration 30.0 uM): 92% | residual activity (Rattus norvegicus [22]): 90%
Compound: CC(C)(O)CNC(=O)N1C(=O)N(c2cccc(C(F)(F)F)c2)C2=C(C(=O)CC2)[C@H]1c1ccc(C#N)cc1
residual activity [1]: 103% | residual activity [2]: 123% | residual activity [3]: 92% | residual activity ([4]; Compound concentration 10.0 uM): 97% | residual activity ([4]; Compound concentration 30.0 uM): 103% | residual activity ([6]; Compound concentration 10.0 uM): 108% | residual activity ([6]; Compound concentration 30.0 uM): 113% | residual activity [8]: 106% | residual activity [9]: 65% | residual activity ([10]; Compound concentration 10.0 uM): 87% | residual activity ([10]; Compound concentration 30.0 uM): 93% | residual activity ([11]; Compound concentration 10.0 uM): 93% | residual activity ([11]; Compound concentration 30.0 uM): 98% | residual activity [12]: 115% | residual activity [13]: 114% | residual activity [14]: 88% | residual activity [17]: 103% | residual activity [20]: 136% | residual activity [23]: 114% | residual activity [24]: 111% | residual activity [25]: 121% | residual activity [26]: 108%

residual activity [30]: 88% | residual activity [31]: 101% | residual activity [32]: 94%
Compound: CC(C)(O)CNC(=O)N1C(=O)N(c2cccc(C(F)(F)F)c2)C2=C(C(=O)CC2)[C@@H]1c1ccc(C#N)cc1
residual activity [27]: 83% | residual activity [28]: 98% | residual activity [29]: 92% | activity at 10 µM (hERG (KCNH2)): 96% (not active)
